Usually IC50 stands for the point on the concentration scale where inhibition reaches its midpoint.

Each structure is given as a SMILES string.

The subject of the first test is acetylchotine esterass.
Test: not given
To be noted: background; cited from earlier work.
Consider `Nc1c2c(nc3ccccc13)CCCC2` [THA, 1,2,3,4tetrahydro-9-aminoacridine], for which the “inhibition to acetylcholine esterase” value is “its action cannot be said as powerful”.

In a further test the target is T1, binding of 3H-pirenzepine to brain homogenate of rat (Rattus norvegicus, UniProt P08482).
T1 construct: from tissue; host or cells: brain of male SD rats, cerebellum removed; supernatant of 1000×g, re-homogenized
T1 sequence (P08482 1-460): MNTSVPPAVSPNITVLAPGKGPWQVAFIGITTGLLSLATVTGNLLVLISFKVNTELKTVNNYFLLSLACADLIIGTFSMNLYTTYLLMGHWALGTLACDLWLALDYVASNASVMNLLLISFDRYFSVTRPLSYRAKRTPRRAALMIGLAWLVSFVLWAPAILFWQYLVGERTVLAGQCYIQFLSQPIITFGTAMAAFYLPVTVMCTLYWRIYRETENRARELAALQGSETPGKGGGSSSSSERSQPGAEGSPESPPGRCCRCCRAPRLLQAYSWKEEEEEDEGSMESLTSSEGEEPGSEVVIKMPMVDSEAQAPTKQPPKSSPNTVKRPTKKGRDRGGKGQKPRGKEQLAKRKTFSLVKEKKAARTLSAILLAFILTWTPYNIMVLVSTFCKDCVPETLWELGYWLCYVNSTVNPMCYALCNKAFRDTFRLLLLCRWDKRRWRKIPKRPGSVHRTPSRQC
Put plainly: Inhibition against binding of 3H-pirenzepine to brain homogenate of rat. The following applies: 2.0 nM 3H-pirenzepine; rat brain homogenate without cerebellum; 550 mM phosphate buffer pH 7.4; 60 minutes at room temperature; read-out: 50% inhibition (IC50) against binding of 3H-pirenzepine to brain homogenate. As for the experimental part:
(Inhibition against binding of 3H-pirenzepine to brain homogenate of rat)
A brain homogenate of rat was prepared in accordance with the method described by Yamanura and Synder ["Proc. Natr. Acad. Sci. USA", Vol. 71, pages 1725-1729 (1974)]. Namely, SD male rats were killed by decapitation to exentrate each brain. From the brains, each cerebellum was removed and 0.32 M aqueous sucrose solution in 10-folds by volume was added under ice-cooling condition to homogenize the same by a Potter-Elvehjem type glass homogenizer. The resulting homogenate was centrifuged for 10 minutes (1000×g) to obtain a supernatant by removing a precipitate, which supernatant was further homogenized by a homogenizer of "Polytron" to obtain a fraction to be used as a brain homogenate.
Tests were carried out according to the method described by Flynn and Mash ["J. Pharm. Exp. Ther.", Vol. 250, pages 573-581 (1989). Namely, to the brain homogenate (0.035 ml, protein content: 0.6 mg), 550 mM phosphate buffer (pH 7.4, 1 ml) containing 2.0 nM ^3 H-pirenzepine and a Test or Control compound (1 ml, if the test or control compound is solid form, it is dissolved by the 550 mM phosphate buffer) were added to cause a reaction for 60 minutes at room temperature. Then, an ice-cooled buffer (3.0 ml) same with the above was added to the reaction mixture. Thereafter, the mixture was filtrated by a Whattman GF/B filter which was previously dipped in 0.1% polyethyleneimine solution for 60 minutes. The filter was washed twice by the buffer solution (each 3.0 ml) and an emulsion scintillatot for measuring luminescence by a scintillation counter. A 50% inhibition (IC50)of the test or control compound against binding of 3H-pirenzepine to brain homogenate was calculated.
Turning to `C=C1CC2(CCN(C)CC2)OC1C` (stereo not drawn) [2,8-Dimethyl-3-methylene-1-oxa-8-azabicyclo-[4.5]decane, reference compound], the IC50 was 23600 nM.
Turning to `CN(CC12CCCN1CCC2)c1ccc(Cl)c2ccccc12` [Example 1, 1-[N-(1-Azabicyclo[3.3.0]octan-5-yl)methyl-N-methylamino]-4-chloronaphthalene], the IC50 was 10 nM.
Take `COc1ccc(N(C)CC23CCCN2CCC3)c2ccccc12` [Example 3, 1-[N-(1-Azabicyclo[3.3.0]octan-5-yl)methyl-N-methylamino]-4-methoxynaphthalene]: the IC50 came out at 90 nM.
Regarding `CN(CC12CCCN1CCC2)c1cccc2ccccc12` [Example 6, 1-[N-(1-Azabicyclo[3.3.0]octan-5-yl)methyl-N-methylamino]-naphthalene], the IC50 amounted to 30 nM.
Still for that read-out and setting: under `CN(CC12CCCN1CCC2)c1ccc(F)c2ccccc12` [Example 8, 1-[N-(1-Azabicyclo[3.3.0]octan-5-yl)methyl-N-methylamino]-4-fluoronaphthalene] stands 20 nM.
Regarding `CCN(CC12CCCN1CCC2)c1ccc([N+](=O)[O-])c2ccccc12` [Example 12, 1-[N-(1-azabicyclo[3.3.0]octan-5-yl)methyl-N-ethylamino]-4-nitronaphthalene], the IC50 was determined as 200 nM.
Same read-out and setting: with `O=CN(CC12CCCN1CCC2)c1ccccc1` [Example 13, N-(1-azabicyclo[3.3.0]octan-5-yl)methyl-N-formylaniline] the figure was 300 nM.
Same read-out and setting: with `CN(CC12CCCN1CCC2)c1ccccc1[N+](=O)[O-]` [Example 17, N-(1-azabicyclo[3.3.0]octan-5-yl)methyl-N-methyl-2-nitroaniline] the figure was 200 nM; with `CN(CC12CCCN1CCC2)c1ccccc1-c1ccccc1` [Example 20, N-(1-Azabicyclo[3.3.0]octan-5-yl)methyl-N-methyl-2-phenylaniline], 100 nM; with `O=[N+]([O-])c1ccccc1NCCC12CCCN1CCC2` [Example 23, N-[2-(1-Azabicyclo[3.3.0]octan-5-yl)ethyl]-2-nitroaniline], 100 nM.
As for `CN(CCC12CCCN1CCC2)c1ccccc1[N+](=O)[O-]` [Example 25, N-[2-(1-Azabicyclo[3.3.0]octan-5-yl)ethyl]-N-methyl-2-nitroaniline], the IC50 turned out to be 200 nM.
On the same count and under the same terms, with `N#Cc1ccccc1NCCC12CCCN1CCC2` [Example 27, 2-[2-(1-Azabicyclo[3.3.0]octan-5-yl)ethylamino]benzonitrile] the figure was 320 nM.
Same read-out and setting: with `N#Cc1ccc(NCCC23CCCN2CCC3)cc1` [Example 28, 4-[2-(1-Azabicyclo[3.3.0]octan-5-yl)ethylamino]-benzonitrile] the figure was 4570 nM; with `CN(CCC12CCCN1CCC2)c1ccccc1C#N` [Example 29, 2-{[2-(1-Azabicyclo[3.3.0]octan-5-yl)ethyl]methylamino}-benzonitrile], 240 nM; with `Clc1ccccc1NCCC12CCCN1CCC2` [Example 30, N-[2-(1-Azabicyclo[3.3.0]octan-5-yl)ethyl]-2-chloroaniline], 430 nM.
With `Fc1ccccc1NCCC12CCCN1CCC2` [Example 31, N-[2-(1-Azabicyclo[3.3.0]octan-5-yl)ethyl]-2-fluoroaniline], the IC50 amounted to 1590 nM.
For `O=[N+]([O-])c1cc(F)ccc1NCCC12CCCN1CCC2` [Example 32, N-[2-(1-Azabicyclo[3.3.0]octan-5-yl)ethyl]-4-fluoro-2-nitroaniline], the IC50 was found to be 690 nM.
For `N#Cc1ccccc1NCC12CCCN1CCC2` [Example 34, 2-[(1-Azabicyclo[3.3.0]octan-5-yl)methylamino]benzonitrile], the IC50 came to 550 nM.
Turning to `O=[N+]([O-])c1ccccc1NCCC12CCCN1CCC2` [Example 36, N-[2-(1-Azabicyclo[3.3.0]octan-5-yl)ethyl]-2-nitroaniline(fumarate)], the IC50 is 90 nM.

Still in this test, the particulars now being: read-out: 50% inhibition (IC50) against binding of 3H-pirenzepine to brain homogenate; 2.0 nM 3H-pirenzepine; rat brain homogenate without cerebellum; 550 mM phosphate buffer pH 7.4; 60 minutes at room temperature.
For the compound `NC(=O)c1ccccc1NCCC12CCCN1CCC2` [Example 33, 2-{[2-(1-Azabicyclo[3.3.0]octan-5-yl)ethyl]amino}benzamide], the IC50 turned out to be 1110 nM.

(Values after patent publication US5530138A, “Compounds and use thereof” (priority 1993, dated 1996).)
